Source: patent US8410161B2, “Thioxanthone ring system derivatives” (National Defense Medical Center, priority 2010, dated 2013)

Key:
A control cell lines = assay: MTT assay, A control cell lines (lung cancer cell); format: cell-based
Source text: Please refer to Table 1 and FIGS. 4A-4C. According to a MTT assay (Table 1), various cell viabilities of the A control cell lines can be obtained and illustrated in FIG. 4A while the compounds No. 2˜30 are used to treat A control cell lines, wherein A control cell lines are lung cancer cell.

A3 cell lines = assay: MTT assay, A3 cell lines (lung cancer stem cell); format: cell-based
Source text: Please to FIG. 4B, various cell viabilities of the A3 cell lines can be obtained through the MTT assay and illustrated in FIG. 4B while the compounds No. 1˜30 are used to treat A3 cell lines, wherein A3 cell lines are lung cancer stem cell.

[1] = MTT assay, HEL299 fibroblast; format: cell-based; settings: human
Source text: Please refer to FIG. 4C, various cell viabilities of the HEL299 cell lines can be obtained through the MTT assay while the compounds No. 1˜30 are used to treat HEL299 cell lines, wherein HEL299 cell lines are fibroblast.

CCRF-CEM = assay: NCI in vitro DTP human cell line screen, CCRF-CEM; format: cell-based; settings: Leukemia, 1.00E−5 Molar
Description: (§1) Then, a cell toxicity assay of the cancer lines made by National Cancer Institute will be discussed as follows. The cell toxicity assay is performed by choosing ten compounds (existing certification numbers) from the 59 compounds disclosed in the present invention first.

HL-60(TB) = assay: NCI in vitro DTP human cell line screen, HL-60(TB); format: cell-based; settings: Leukemia, 1.00E−5 Molar
Description: as §1

K562 = assay: NCI in vitro DTP human cell line screen, K562; format: cell-based; settings: Leukemia, 1.00E−5 Molar
Description: as §1

MOLT-4 = assay: NCI in vitro DTP human cell line screen, MOLT-4; format: cell-based; settings: Leukemia, 1.00E−5 Molar
Description: as §1

RPMI-8226 = assay: NCI in vitro DTP human cell line screen, RPMI-8226; format: cell-based; settings: Leukemia, 1.00E−5 Molar
Description: as §1

SR = assay: NCI in vitro DTP human cell line screen, SR; format: cell-based; settings: Leukemia, 1.00E−5 Molar
Description: as §1

EKVX = assay: NCI in vitro DTP human cell line screen, EKVX; format: cell-based; settings: Non-Small Cell Lung Cancer, 1.00E−5 Molar
Description: as §1

HOP-92 = assay: NCI in vitro DTP human cell line screen, HOP-92; format: cell-based; settings: Non-Small Cell Lung Cancer, 1.00E−5 Molar
Description: as §1

NCI-H226 = assay: NCI in vitro DTP human cell line screen, NCI-H226; format: cell-based; settings: Non-Small Cell Lung Cancer, 1.00E−5 Molar
Description: as §1

NCI-H23 = assay: NCI in vitro DTP human cell line screen, NCI-H23; format: cell-based; settings: Non-Small Cell Lung Cancer, 1.00E−5 Molar
Description: as §1

NCI-H322M = assay: NCI in vitro DTP human cell line screen, NCI-H322M; format: cell-based; settings: Non-Small Cell Lung Cancer, 1.00E−5 Molar
Description: as §1

NCI-H460 = assay: NCI in vitro DTP human cell line screen, NCI-H460; format: cell-based; settings: Non-Small Cell Lung Cancer, 1.00E−5 Molar
Description: as §1

NCI-H522 = assay: NCI in vitro DTP human cell line screen, NCI-H522; format: cell-based; settings: Non-Small Cell Lung Cancer, 1.00E−5 Molar
Description: as §1

COLO 205 = assay: NCI in vitro DTP human cell line screen, COLO 205; format: cell-based; settings: Colon Cancer, 1.00E−5 Molar
Description: as §1

HCC-2998 = assay: NCI in vitro DTP human cell line screen, HCC-2998; format: cell-based; settings: Colon Cancer, 1.00E−5 Molar
Description: as §1

HCT-116 = assay: NCI in vitro DTP human cell line screen, HCT-116; format: cell-based; settings: Colon Cancer, 1.00E−5 Molar
Description: as §1

HCT-15 = assay: NCI in vitro DTP human cell line screen, HCT-15; format: cell-based; settings: Colon Cancer, 1.00E−5 Molar
Description: as §1

HT29 = assay: NCI in vitro DTP human cell line screen, HT29; format: cell-based; settings: Colon Cancer, 1.00E−5 Molar
Description: as §1

KM12 = assay: NCI in vitro DTP human cell line screen, KM12; format: cell-based; settings: Colon Cancer, 1.00E−5 Molar
Description: as §1

SW-620 = assay: NCI in vitro DTP human cell line screen, SW-620; format: cell-based; settings: Colon Cancer, 1.00E−5 Molar
Description: as §1

SF-268 = assay: NCI in vitro DTP human cell line screen, SF-268; format: cell-based; settings: CNS Cancer, 1.00E−5 Molar
Description: as §1

SF-295 = assay: NCI in vitro DTP human cell line screen, SF-295; format: cell-based; settings: CNS Cancer, 1.00E−5 Molar
Description: as §1

SF-539 = assay: NCI in vitro DTP human cell line screen, SF-539; format: cell-based; settings: CNS Cancer, 1.00E−5 Molar
Description: as §1

SNB-19 = assay: NCI in vitro DTP human cell line screen, SNB-19; format: cell-based; settings: CNS Cancer, 1.00E−5 Molar
Description: as §1

SNB-75 = assay: NCI in vitro DTP human cell line screen, SNB-75; format: cell-based; settings: CNS Cancer, 1.00E−5 Molar
Description: as §1

U251 = assay: NCI in vitro DTP human cell line screen, U251; format: cell-based; settings: CNS Cancer, 1.00E−5 Molar
Description: as §1

LOX IMVI = assay: NCI in vitro DTP human cell line screen, LOX IMVI; format: cell-based; settings: Melanoma, 1.00E−5 Molar
Description: as §1

MALME-3M = assay: NCI in vitro DTP human cell line screen, MALME-3M; format: cell-based; settings: Melanoma, 1.00E−5 Molar
Description: as §1

M14 = assay: NCI in vitro DTP human cell line screen, M14; format: cell-based; settings: Melanoma, 1.00E−5 Molar
Description: as §1

MDA-MB-435 = assay: NCI in vitro DTP human cell line screen, MDA-MB-435; format: cell-based; settings: Melanoma, 1.00E−5 Molar
Description: as §1

SK-MEL-2 = assay: NCI in vitro DTP human cell line screen, SK-MEL-2; format: cell-based; settings: Melanoma, 1.00E−5 Molar
Description: as §1

SK-MEL-28 = assay: NCI in vitro DTP human cell line screen, SK-MEL-28; format: cell-based; settings: Melanoma, 1.00E−5 Molar
Description: as §1

SK-MEL-5 = assay: NCI in vitro DTP human cell line screen, SK-MEL-5; format: cell-based; settings: Melanoma, 1.00E−5 Molar
Description: as §1

UACC-257 = assay: NCI in vitro DTP human cell line screen, UACC-257; format: cell-based; settings: Melanoma, 1.00E−5 Molar
Description: as §1

UACC-62 = assay: NCI in vitro DTP human cell line screen, UACC-62; format: cell-based; settings: Melanoma, 1.00E−5 Molar
Description: as §1

IGROV1 = assay: NCI in vitro DTP human cell line screen, IGROV1; format: cell-based; settings: Ovarian Cancer, 1.00E−5 Molar
Description: as §1

OVCAR-3 = assay: NCI in vitro DTP human cell line screen, OVCAR-3; format: cell-based; settings: Ovarian Cancer, 1.00E−5 Molar
Description: as §1

OVCAR-4 = assay: NCI in vitro DTP human cell line screen, OVCAR-4; format: cell-based; settings: Ovarian Cancer, 1.00E−5 Molar
Description: as §1

OVCAR-5 = assay: NCI in vitro DTP human cell line screen, OVCAR-5; format: cell-based; settings: Ovarian Cancer, 1.00E−5 Molar
Description: as §1

OVCAR-8 = assay: NCI in vitro DTP human cell line screen, OVCAR-8; format: cell-based; settings: Ovarian Cancer, 1.00E−5 Molar
Description: as §1

NCI/ADR-RES = assay: NCI in vitro DTP human cell line screen, NCI/ADR-RES; format: cell-based; settings: Ovarian Cancer, 1.00E−5 Molar
Description: as §1

SK-OV-3 = assay: NCI in vitro DTP human cell line screen, SK-OV-3; format: cell-based; settings: Ovarian Cancer, 1.00E−5 Molar
Description: as §1

786-0 = assay: NCI in vitro DTP human cell line screen, 786-0; format: cell-based; settings: Renal Cancer, 1.00E−5 Molar
Description: as §1

ACHN = assay: NCI in vitro DTP human cell line screen, ACHN; format: cell-based; settings: Renal Cancer, 1.00E−5 Molar
Description: as §1

CAKI-1 = assay: NCI in vitro DTP human cell line screen, CAKI-1; format: cell-based; settings: Renal Cancer, 1.00E−5 Molar
Description: as §1

RXF 393 = assay: NCI in vitro DTP human cell line screen, RXF 393; format: cell-based; settings: Renal Cancer, 1.00E−5 Molar
Description: as §1

SN12C = assay: NCI in vitro DTP human cell line screen, SN12C; format: cell-based; settings: Renal Cancer, 1.00E−5 Molar
Description: as §1

TK-10 = assay: NCI in vitro DTP human cell line screen, TK-10; format: cell-based; settings: Renal Cancer, 1.00E−5 Molar
Description: as §1

UO-31 = assay: NCI in vitro DTP human cell line screen, UO-31; format: cell-based; settings: Renal Cancer, 1.00E−5 Molar
Description: as §1

PC-3 = assay: NCI in vitro DTP human cell line screen, PC-3; format: cell-based; settings: Prostate Cancer, 1.00E−5 Molar
Description: as §1

DU145 = assay: NCI in vitro DTP human cell line screen, DU145; format: cell-based; settings: Prostate Cancer, 1.00E−5 Molar
Description: as §1

MCF7 = assay: NCI in vitro DTP human cell line screen, MCF7; format: cell-based; settings: Breast Cancer, 1.00E−5 Molar
Description: as §1

MDA-MB-231/ATCC = assay: NCI in vitro DTP human cell line screen, MDA-MB-231/ATCC; format: cell-based; settings: Breast Cancer, 1.00E−5 Molar
Description: as §1

HS 578-T = assay: NCI in vitro DTP human cell line screen, HS 578-T; format: cell-based; settings: Breast Cancer, 1.00E−5 Molar
Description: as §1

BT-549 = assay: NCI in vitro DTP human cell line screen, BT-549; format: cell-based; settings: Breast Cancer, 1.00E−5 Molar
Description: as §1

T-47D = assay: NCI in vitro DTP human cell line screen, T-47D; format: cell-based; settings: Breast Cancer, 1.00E−5 Molar
Description: as §1

MDA-MB-468 = assay: NCI in vitro DTP human cell line screen, MDA-MB-468; format: cell-based; settings: Breast Cancer, 1.00E−5 Molar
Description: as §1

60 cancer lines = assay: NCI cell toxicity assay of 60 cancer lines, whole panel summary; format: cell-based, human; settings: mean over all cell lines; 1.00E−5 Molar
Description: as §1

O=c1c2ccccc2sc2c(Cl)c(Sc3ccccc3)ccc12 [No. 6, 4-Chloro-3-(phenylthio)-9H-thioxanthen-9-one]
cell viabilities of A control cell lines (MTT assay) (A control cell lines): 99.7 ± 4.76% | cell viabilities of A3 cell lines (MTT assay) (A3 cell lines): 103 ± 13.0% | viability [1]: 107 ± 2.62% | Growth Percent (CCRF-CEM): 96.58% | Growth Percent (HL-60(TB)): 103.53% | Growth Percent (K562): 101.65% | Growth Percent (MOLT-4): 99.77% | Growth Percent (RPMI-8226): 102.11% | Growth Percent (SR): 91.41% | Growth Percent (EKVX): 94.90% | Growth Percent (HOP-92): 76.04% | Growth Percent (NCI-H226): 85.36% | Growth Percent (NCI-H23): 84.67% | Growth Percent (NCI-H322M): 96.11% | Growth Percent (NCI-H460): 108.87% | Growth Percent (NCI-H522): 84.11% | Growth Percent (COLO 205): 103.82% | Growth Percent (HCC-2998): 106.34% | Growth Percent (HCT-116): 98.18% | Growth Percent (HCT-15): 92.60% | Growth Percent (HT29): 102.56% | Growth Percent (KM12): 99.82% | Growth Percent (SW-620): 96.96% | Growth Percent (SF-268): 93.39% | Growth Percent (SF-295): 100.33% | Growth Percent (SF-539): 104.85% | Growth Percent (SNB-19): 98.01% | Growth Percent (SNB-75): 82.75% | Growth Percent (U251): 94.85% | Growth Percent (LOX IMVI): 96.25% | Growth Percent (MALME-3M): 92.44% | Growth Percent (M14): 104.30% | Growth Percent (MDA-MB-435): 103.22% | Growth Percent (SK-MEL-2): 104.71% | Growth Percent (SK-MEL-28): 113.07% | Growth Percent (SK-MEL-5): 95.50% | Growth Percent (UACC-257): 102.79% | Growth Percent (UACC-62): 79.70% | Growth Percent (IGROV1): 91.62% | Growth Percent (OVCAR-3): 108.01% | Growth Percent (OVCAR-4): 99.56% | Growth Percent (OVCAR-5): 104.51% | Growth Percent (OVCAR-8): 94.68% | Growth Percent (NCI/ADR-RES): 96.88% | Growth Percent (SK-OV-3): 96.13% | Growth Percent (786-0): 111.45% | Growth Percent (ACHN): 94.03% | Growth Percent (CAKI-1): 84.00% | Growth Percent (RXF 393): 110.95% | Growth Percent (SN12C): 87.55% | Growth Percent (TK-10): 97.85% | Growth Percent (UO-31): 73.68% | Growth Percent (PC-3): 90.81% | Growth Percent (DU145): 108.05% | Growth Percent (MCF7): 82.14% | Growth Percent (MDA-MB-231/ATCC): 93.94% | Growth Percent (HS 578-T): 119.59% | Growth Percent (BT-549): 107.30% | Growth Percent (T-47D): 87.90% | Growth Percent (MDA-MB-468): 82.54% | Growth Percent, Mean (60 cancer lines): 96.75%
